≈ marks a conversion by molar mass, not a printed value. Like-named read-outs stand apart in the source and are kept apart here.
How the values were obtained:
E. faecalis = assay type: cell-based
Method: (§1) Compounds according to Formula II were tested for antimicrobial activity against a panel of organisms according to standard procedures described by the National Committee for Clinical Laboratory Standards (NCCLS document M7-A5, Vol. 20, No. 2, 2000) except that all testing was performed at 37° C. Compounds were dissolved in 100% dimethyl sulfoxide and were diluted to the final reaction concentration (0.1 μg/mL-100 μg/mL) in microbial growth media. In all cases the final concentration of dimethyl sulfoxide incubated with cells is less than or equal to 1%. For minimum inhibitory concentration (MIC) calculations, 2-fold dilutions of compounds were added to wells of a microtiter plate containing 5×10^4 bacteria cells in a final volume of 100 μL of media (Mueller-Hinton Broth supplemented with 50 mg/L Ca^2+). The optical densities (OD) of the bacterial cells, which measures bacterial cell growth and proliferation, were measured using a commercial plate reader. The MIC value is defined as the lowest compound concentration inhibiting growth of the test organism.

S. aureus = assay type: cell-based
Method: as §1

[1] = Mueller-Hinton Broth supplemented with 50 mg/L Ca2+, 37° C., 2-fold dilutions

In the case of `CCCCCCCCCC(=O)N[C@@H](Cc1c[nH]c2ccccc12)C(=O)N[C@@H](CC(N)=O)C(=O)N[C@@H](CC(=O)O)C(=O)N[C@@H]1C(=O)NCC(=O)N[C@@H](CCCN)C(=O)N[C@@H](CC(=O)O)C(=O)N[C@H](C)C(=O)N[C@@H](CC(=O)O)C(=O)NCC(=O)N[C@H](CO)C(=O)N[C@@H](C(C)CC(=O)O)C(=O)N[C@@H](CC(=O)c2ccccc2N)C(=O)O[C@@H]1C` (stereo partly shown) [Compound HH], the “MIC (μg/ml) E. faecalis” value (E. faecalis; [1]) is reported as 100 µg/mL (≈ 61.7 µM) and the “MIC (μg/ml) S. aureus” value (S. aureus; [1]) is reported as 6.25 µg/mL (≈ 3.86 µM).
`CCCCCCCCCC(=O)N[C@@H](Cc1c[nH]c2ccccc12)C(=O)N[C@H](CC(N)=O)C(=O)N[C@@H](CC(=O)O)C(=O)N[C@@H]1C(=O)NCC(=O)N[C@@H](CCCN)C(=O)N[C@@H](CC(=O)O)C(=O)N[C@H](C)C(=O)N[C@@H](CC(=O)O)C(=O)NCC(=O)N[C@H](CO)C(=O)N[C@@H]([C@H](C)CC(=O)O)C(=O)N[C@@H](CC(=O)c2ccccc2N)C(=O)O[C@@H]1C` [Daptomycin] was tested, and the “MIC (μg/ml) E. faecalis” value (E. faecalis) was 6.26 µg/mL (≈ 3.86 µM) and the “MIC (μg/ml) S. aureus” value (S. aureus) was 0.78 µg/mL (≈ 0.481 µM).

— patent US7262268B2, “Lipopeptide stereoisomers, methods for preparing same, and useful intermediates” (Cubist Pharmaceuticals, Inc., priority 2001, dated 2007)
